# Tested on: LXRα and/or LXRβ
# Experiment: LXR/LXRE co-transfection assay (luciferase reporter, CV-1 cells)
# Type: cell-based, human
# Details: IC50 or EC50 for LXR (LXRα and/or LXRβ, not distinguished), tested as described in Example 109, CV-1 cells
# In short: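 Luciferase readout after 20 h compound exposure at 37 °C in CV-1 cells transiently expressing human LXRα or LXRβ with RXRα and an LXRE-driven reporter. Dose-response over 8 points at ½-log spacing, 4 wells each, fitted for EC50/IC50; values average ≥3 independent experiments, efficacy as % of high control.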
row,Molecule,EC50 [µM]
1,"CC(C)(O)c1cc(-c2ccc(-c3ccc(S(C)(=O)=O)cc3)cc2)n(-c2ccccc2Cl)n1 [Example 1305, 2-{1-(2-chlorophenyl)-5-[4′-(methylsulfonyl)biphenyl-4-yl]-1H-pyrazol-3-yl}propan-2-ol]",1 to 10
2,"CC(C)(O)c1cccc(-c2ccc(-c3cc(C(C)(C)O)nn3-c3ccccc3Cl)cc2)c1 [Example 1307, 2-{1-(2-chlorophenyl)-5-[3′-(1-hydroxy-1-methylethyl)biphenyl-4-yl]-1H-pyrazol-3-yl}propan-2-ol]",< 1
3,"CS(=O)(=O)c1cc(-c2ccc(-c3cc(C(F)(F)F)nn3-c3cc(Cl)ccc3Cl)s2)ccc1O [Example 1247, 4-{5-[1-(2,5-dichlorophenyl)-3-(trifluoromethyl)-1H-pyrazol-5-yl]-2-thienyl}-2-(methylsulfonyl)phenol]",1 to 10
4,"CC(C)(O)c1ccc(-c2ccc(-c3cc(C(F)(F)F)nn3-c3ccccc3Cl)s2)cc1 [Example 1241, 2-(4-{5-[1-(2-chlorophenyl)-3-(trifluoromethyl)-1H-pyrazol-5-yl]-2-thienyl}phenyl)propan-2-ol]",1 to 10
5,"CC(C)(O)c1nn(-c2ccccc2OC(F)(F)F)c(-c2ccc(-c3cccc(S(C)(=O)=O)c3)s2)c1Br [Example 1359, 2-(4-bromo-5-{5-[3-(methylsulfonyl)phenyl]-2-thienyl)-1-{2-[(trifluoromethyl)oxy]phenyl}-1H-pyrazol-3-yl)propan-2-ol]",< 1
6,"CC(C)(O)c1cc(-c2ccc(-c3cccc(S(C)(=O)=O)c3)s2)n(-c2cccnc2Cl)n1 [Example 1273, 2-[1-(2-chloropyridin-3-yl)-5-{5-[3-(methylsulfonyl)phenyl]-2-thienyl}-1H-pyrazol-3-yl]propan-2-ol]",< 1
7,"O=C(c1ccc(-c2cc(C(F)(F)F)nn2-c2ccccc2Cl)cc1)N1CCCC1CO (stereo not drawn) [Example 1000, [1-({4-[1-(2-chlorophenyl)-3-(trifluoromethyl)-1H-pyrazol-5-yl]phenyl}carbonyl)pyrrolidin-2-yl]methanol]",1 to 10
8,"CC(C)(O)c1cc(-c2ccc(-c3cccc(C#N)c3)s2)n(-c2ccccc2Cl)n1 [Example 1269, 3-{5-[1-(2-chlorophenyl)-3-(1-hydroxy-1-methylethyl)-1H-pyrazol-5-yl]-2-thienyl}benzonitrile]",1 to 10
9,"CC(C)(O)c1cc(-c2ccc(-c3cccc(S(C)(=O)=O)c3)cc2)n(-c2ncccc2C(F)(F)F)n1 [Example 1202, 2-{5-[3′-(methylsulfonyl)phenyl-4-yl]-1-[3-(trifluoromethyl)pyridin-2-yl]-1H-pyrazol-3-yl}propan-2-ol]",< 1
10,"CC(C)(O)c1cc(-c2ccc(-c3cccc(S(C)(=O)=O)c3)s2)n(-c2ccc(Cl)cc2Cl)n1 [Example 1280, 2-[1-(2,4-dichlorophenyl)-5-{5-[3-(methylsulfonyl)phenyl]-2-thienyl}-1H-pyrazol-3-yl]propan-2-ol]",1 to 10
11,"CC(C)(O)c1cc(-c2ccc(-c3cccc(S(C)(=O)=O)c3)s2)n(-c2c(F)cccc2C(F)(F)F)n1 [Example 1353, 2-(1-[2-fluoro-6-(trifluoromethyl)phenyl]-5-{5-[3-(methylsulfonyl)phenyl]-2-thienyl}-1H-pyrazol-3-yl)propan-2-ol]",< 1
12,"COC(=O)CCNC(=O)c1ccc(-c2cc(C(F)(F)F)nn2-c2ccccc2Cl)cc1 [Example 1356, methyl N-({4-[1-(2-chlorophenyl)-3-(trifluoromethyl)-1H-pyrazol-5-yl]phenyl}carbonyl)-beta-alaninate]",1 to 10
13,"CC(C)(O)c1cc(-c2ccc(-c3cccc(S(C)(=O)=O)c3)s2)n(-c2ccncc2Cl)n1 [Example 112, 2-(1-(3-chloropyridin-4-yl)-5-(5-(3-(methylsulfonyl)phenyl)thiophen-2-yl)-1H-pyrazol-3-yl)propan-2-ol]",1 to 10
14,"CN(C)CCNC(=O)c1cccc(-c2ccc(-c3cc(C(C)(C)O)nn3-c3ccccc3Cl)cc2)c1 [Example 1293, 4′-[1-(2-chlorophenyl)-3-(1-hydroxy-methylethyl)-1H-pyrazol-5-yl]-N-[2-(dimethylamino)ethyl]biphenyl-3-carboxamide]",1 to 10
15,"CC(C)(O)c1nn(-c2ccc(-c3cccc(S(C)(=O)=O)c3)cc2Cl)c(-c2ccccc2C(F)(F)F)c1Cl [Example 1421, 2-(4-chloro-1-(3-chloro-3′-(methylsulfonyl)biphenyl-4-yl)-5-(2-(trifluoromethyl)phenyl)-1H-pyrazol-3-yl)propan-2-ol]",< 1
16,"CC(C)(O)c1cccc(-n2nc(C(F)(F)F)cc2-c2ccc(-c3cccc(S(C)(=O)=O)c3)s2)c1 [Example 1187, 2-{3-[5-{5-[3-(methylsulfonyl)phenyl]-2-thienyl}-3-(trifluoromethyl)-1H-pyrazol-1-yl]phenyl}propan-2-ol]",< 1
17,"CN(Cc1ccncc1)Cc1cc(-c2ccc(-c3cccc(S(C)(=O)=O)c3)s2)n(-c2ccccc2Cl)n1 [Example 547, 1-[1-(2-chlorophenyl)-5-{5-[3-(methylsulfonyl)phenyl]-2-thienyl}-1H-pyrazol-3-yl]-N-methyl-N-(pyridin-4-ylmethyl)methanamine]",< 1

row,Molecule,EC50 [µM]
1,"CS(=O)(=O)c1cccc(-c2ccc(-c3cc(C(=O)N4CCCC4)nn3-c3c(Cl)cccc3Cl)c(Cl)c2)c1 [Example 143, (5-(3-chloro-3′-(methylsulfonyl)biphenyl-4-yl)-1-(2,6-dichlorophenyl)-1H-pyrazol-3-yl)(pyrrolidin-1-yl)methanone]",< 1
2,"CC(C)CNC(=O)c1cc(-c2ccc(-c3cccc(S(C)(=O)=O)c3)cc2Cl)n(-c2c(Cl)cccc2Cl)n1 [Example 1389, 5-(3-chloro-3′-(methylsulfonyl)biphenyl-4-yl)-1-(2,6-dichlorophenyl)-N-isobutyl-1H-pyrazole-3-carboxamide]",< 1
3,"CC(C)(O)c1cc(-c2ccc(-c3cccc(S(C)(=O)=O)c3)s2)n(-c2cccc(Cl)c2F)n1 [Example 1328, 2-[1-(3-chloro-2-fluorophenyl)-5-{5-[3-(methylsulfonyl)phenyl]-2-thienyl}-1H-pyrazol-3-yl]propan-2-ol]",< 1
4,"CC(C)(CNC=O)c1cc(-c2ccc(-c3cccc(S(C)(=O)=O)c3)s2)n(-c2ccccc2Cl)n1 [Example 1204, N-{2-[1-(2-chlorophenyl)-5-{5-[3-(methylsulfonyl)phenyl]-2-thienyl}-1H-pyrazol-3-yl]-2-methylpropyl}formamide]",1 to 10
5,"CC(C)(O)c1cc(-c2ccc(-c3cccc(S(C)(=O)=O)c3)s2)n(-c2cc(F)ccc2Cl)n1 [Example 1334, 2-[1-(2-chloro-5-fluorophenyl)-5-{5-[3-(methylsulfonyl)phenyl]-2-thienyl}-1H-pyrazol-3-yl]propan-2-ol]",< 1
6,"CN1CCC(N(C)C(=O)c2cc(-c3ccc(-c4cccc(S(C)(=O)=O)c4)s3)n(-c3ccccc3Cl)n2)CC1 [Example 716, 1-(2-chlorophenyl)-N-methyl-N-(1-methylpiperidin-4-yl)-5-{5-[3-(methylsulfonyl)phenyl]-2-thienyl}-1H-pyrazole-3-carboxamide]",< 1
7,"CC(C)(O)c1cc(-c2cccc(Cl)c2Cl)n(-c2ccc(-c3cccc(S(C)(=O)=O)c3)cc2)n1 [Example 106, 2-(5-(2,3-dichlorophenyl)-1-(3′-(methylsulfonyl)biphenyl-4-yl)-1H-pyrazol-3-yl)propan-2-ol]",1 to 10
8,"C/C(=N\OCCN(C)C)c1cc(-c2ccc(-c3cccc(S(C)(=O)=O)c3)s2)n(-c2ccccc2Cl)n1 [Example 1337, (1E)-1-[1-(2-chlorophenyl)-5-{5-[3-(methylsulfonyl)phenyl]-2-thienyl}-1H-pyrazol-3-yl]ethanone O-[2-(dimethylamino)ethyl]oxime]",< 1
9,"CC(C)(O)c1cc(-c2ccc(-c3cccc(S(C)(=O)=O)c3)cc2Cl)n(-c2cccnc2C(F)(F)F)n1 [Example 1385, 2-(5-(3-chloro-3′-(methylsulfonyl)biphenyl-4-yl)-1-(2-(trifluoromethyl)pyridin-3-yl)-1H-pyrazol-3-yl)propan-2-ol]",< 1
10,"CC(=O)c1cc(-c2ccc(-c3cccc(S(C)(=O)=O)c3)s2)n(-c2c(Cl)cccc2Cl)n1 [Example 1242, 1-[1-(2,6-dichlorophenyl)-5-{5-[3-(methylsulfonyl)phenyl]-2-thienyl}-1H-pyrazol-3-yl]ethanone]",< 1
11,"Cc1cc(-c2cccc(S(C)(=O)=O)c2)ccc1-n1nc(C(C)(C)O)c(Cl)c1-c1c(Cl)cccc1Cl [Example 1424, 2-(4-chloro-5-(2,6-dichlorophenyl)-1-(3-methyl-3′-(methylsulfonyl)biphenyl-4-yl)-1H-pyrazol-3-yl)propan-2-ol]",< 1
12,"CC(C)(O)c1nn(-c2ccccc2Cl)c(-c2ccc(-c3cccc(S(C)(=O)=O)c3)cn2)c1Cl [Example 128, 2-(4-chloro-1-(2-chlorophenyl)-5-(5-(3-(methylsulfonyl)phenyl)pyridin-2-yl)-1H-pyrazol-3-yl)propan-2-ol]",1 to 10
13,"CCC(O)(CC)c1cc(-c2ccc(-c3cccc(S(C)(=O)=O)c3)s2)n(-c2ccccc2Cl)n1 [Example 1174, 3-[1-(2-chlorophenyl)-5-{5-[3-(methylsulfonyl)phenyl]-2-thienyl}-1H-pyrazol-3-yl]pentan-3-ol]",< 1
14,1-(5-(1-(2-chlorophenyl)-3-(trifluoromethyl)-1H-pyrazol-5-yl)thiophen-2-ylsulfonyl)-4-methylpiperazine [Example 69],< 1
15,"CC(C)(O)c1cc(-c2ccccc2Cl)n(-c2ccc(-c3cccc(S(C)(=O)=O)c3)cc2)n1 [Example 1217, 2-{5-(2-chlorophenyl)-1-[3′-(methylsulfonyl)biphenyl-4-yl]-1H-pyrazol-3-yl}propan-2-ol]",1 to 10
16,"CS(=O)(=O)c1cccc(-c2ccc(-n3nc(C(F)(F)F)cc3-c3ccccc3C(F)(F)F)nc2)c1 [Example 1231, 5-[3-(methylsulfonyl)phenyl]-2-{3-(trifluoromethyl)-5-[2-(trifluoromethyl)phenyl]-1H-pyrazol-1-yl}pyridine]",< 1

# From US8703805B2 (Exelixis Patent Company LLC, priority 2005, dated 2014)
